# Test results as given in patent US12503436B2, “Compounds and compositions for treating conditions associated with STING activity” (NOVARTIS PHARMA AG, priority 2021, dated 2025).
# Target: STING (Homo sapiens, UniProt Q86WV6, G230A/H232R/R293Q/R71H)
# Assay: STING reporter assay in THP1-Dual KO-IFNAR2 cells (2′3′cGAMP stimulation, luciferase reporter)
# Assay type: cell-based
# Settings: 15 μM 2′3′cGAMP stimulation, 24 h, read-out: Pharmaron, THP1_IFNAR2 STING 24 h Luci Normalized: GeoMean EC50
# Summary of the method: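 THP1-Dual KO-IFNAR2 cells (2×10E6 cells/mL) with compounds at 0.0017-100 μM final, stimulated with 15 μM final 2′3′cGAMP delivered by Lipofectamine 2000; 24 h at 37 °C. Luciferase in supernatant read with QUANTI-Luc Plus; EC50 derived from luminescence.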
# Chain of STING (Q86WV6 whole entry R71H/G230A/H232R/R293Q): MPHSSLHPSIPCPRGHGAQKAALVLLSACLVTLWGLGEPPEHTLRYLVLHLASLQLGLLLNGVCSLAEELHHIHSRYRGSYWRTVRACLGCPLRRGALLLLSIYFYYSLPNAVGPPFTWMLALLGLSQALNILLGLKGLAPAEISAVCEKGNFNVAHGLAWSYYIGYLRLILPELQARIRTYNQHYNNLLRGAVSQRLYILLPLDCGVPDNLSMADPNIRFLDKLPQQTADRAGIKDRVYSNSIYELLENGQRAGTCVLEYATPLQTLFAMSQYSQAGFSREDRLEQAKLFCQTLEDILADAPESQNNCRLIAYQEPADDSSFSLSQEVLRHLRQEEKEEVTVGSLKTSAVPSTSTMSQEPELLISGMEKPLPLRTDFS
row,SMILES,EC50
1,"O=C(Nc1c[nH]c2ccc(O[C@H]3C[C@H](c4ccc(C(F)(F)F)cc4)C3)cc12)C1CC1 [Compound 147, N-(5-(trans-3-(4-(trifluoromethyl)phenyl)cyclobutoxy)-1H-indol-3-yl)cyclopropanecarboxamide]",40 to 200 nM
2,"O=C(Nc1c[nH]c2ccc(OCCc3ccc(C(F)(F)F)nc3)cc12)C1CN(CC(F)(F)F)C1 [Compound 195, 1-(2,2,2-trifluoroethyl)-N-(5-(2-(6-(trifluoromethyl)pyridin-3-yl)ethoxy)-1H-indol-3-yl)azetidine-3-carboxamide]",200 to 1000 nM
3,"CC1(C(=O)Nc2c[nH]c3ccc(OCC[C@@H]4C[C@@H]5CN(CC(F)(F)F)C[C@@H]5C4)cc23)CC1 [Compound 379, 1-methyl-N-(5-(2-((3aR,5r,6aS)-2-(2,2,2-trifluoroethyl)octahydrocyclopenta[c]pyrrol-5-yl)ethoxy)-1H-indol-3-yl)cyclopropane-1-carboxamide]",200 to 1000 nM
4,"CC(=O)Nc1c[nH]c2ccc(CO[C@H]3C[C@@H](c4ccc(C(F)(F)F)cc4)C3)cc12 [Compound 500, N-(5-((cis-3-(4-(trifluoromethyl)phenyl)cyclobutoxy)methyl)-1H-indol-3-yl)acetamide]",40 to 200 nM
5,"CC1(C)CC(C(=O)Nc2c[nH]c3ccc(CCOc4ccc(C(F)(F)F)cc4)cc23)C1 [Compound 348, 3,3-dimethyl-N-(5-(2-(4-(trifluoromethyl)phenoxy)ethyl)-1H-indol-3-yl)cyclobutane-1-carboxamide]",200 to 1000 nM
6,"CC(=O)Nc1c[nH]c2ccc(OCCn3cc(C(F)(F)F)cn3)cc12 [Compound 197, N-(5-(2-(4-(trifluoromethyl)-1H-pyrazol-1-yl)ethoxy)-1H-indol-3-yl)acetamide]",5000 to 100000 nM
7,"CO[C@H]1C[C@H](C(=O)Nc2c[nH]c3ccc(CCOc4ccc(C(F)(F)F)cc4)cc23)C1 [Compound 220, trans-3-methoxy-N-(5-(2-(4-(trifluoromethyl)phenoxy)ethyl)-1H-indol-3-yl)cyclobutane-1-carboxamide]",40 to 200 nM
8,"CC(=O)Nc1c[nH]c2c(F)cc(COCc3ccc(C(F)(F)F)cc3)cc12 [Compound 276, N-(7-fluoro-5-(((4-(trifluoromethyl)benzyl)oxy)methyl)-1H-indol-3-yl)acetamide]",1000 to 5000 nM
9,"CC(=O)Nc1c[nH]c2ccc(OC(C)Cc3ccc(C(F)(F)F)cc3)cc12 (single isomer, unassigned) [Compound 285, N-(5-((1-(4-(trifluoromethyl)phenyl)propan-2-yl)oxy)-1H-indol-3-yl)acetamide]",1000 to 5000 nM
10,"C[C@H]1C[C@H](C(=O)Nc2c[nH]c3ccc(CCOc4ccc(C(F)(F)F)cc4)cc23)C1 [Compound 392, trans-3-methyl-N-(5-(2-(4-(trifluoromethyl)phenoxy)ethyl)-1H-indol-3-yl)cyclobutane-1-carboxamide]",200 to 1000 nM
11,"CC(=O)Nc1c[nH]c2ccc(OCCc3ccc(C(F)(F)F)cc3)nc12 [Compound 248, N-(5-(4-(trifluoromethyl)phenethoxy)-1H-pyrrolo[3,2-b]pyridin-3-yl)acetamide]",1000 to 5000 nM
12,"CC(=O)Nc1c[nH]c2ccc(C(C)C[C@@H]3C[C@@H]4CN(CC(F)(F)F)C[C@@H]4C3)cc12 (stereo partly drawn) [Compound 538, N-(5-(1-((3aR,5r,6aS)-2-(2,2,2-trifluoroethyl)octahydrocyclopenta[c]pyrrol-5-yl)propan-2-yl)-1H-indol-3-yl)acetamide]",1000 to 5000 nM
13,"C[C@H]1OC[C@H]1C(=O)Nc1c[nH]c2ccc(O[C@H]3C[C@H](c4ccc(C(F)(F)F)cc4)C3)cc12 [Compound 424, (2R,3R)-2-methyl-N-(5-(trans-3-(4-(trifluoromethyl)phenyl)cyclobutoxy)-1H-indol-3-yl)oxetane-3-carboxamide]",200 to 1000 nM
14,"CC(=O)Nc1c[nH]c2ccc(OCCC34CC(C3)C4)cc12 [Compound 458, N-(5-(2-(bicyclo[1.1.1]pentan-1-yl)ethoxy)-1H-indol-3-yl)acetamide]",1000 to 5000 nM
15,"CC(=O)Nc1c[nH]c2ccc(CCOc3ccc(C4CCN(CC(F)(F)F)CC4)cc3)cc12 [Compound 170, N-(5-(2-(4-(1-(2,2,2-trifluoroethyl)piperidin-4-yl)phenoxy)ethyl)-1H-indol-3-yl)acetamide]",200 to 1000 nM
16,"CC(=O)Nc1c[nH]c2ccc(OCC3CCN(CC(F)(F)F)CC3)cc12 [Compound 119, N-(5-((1-(2,2,2-trifluoroethy|)piperidin-4-yl)methoxy)-1H-indol-3-yl)acetamide]",5000 to 100000 nM
17,"O=C(Nc1c[nH]c2ccc(OCc3ccc(C(F)(F)F)cc3)cc12)C1CC(F)C1 (centres unmarked) [Compound 326, 3-fluoro-N-(5-((4-(trifluoromethyl)benzyl)oxy)-1H-indol-3-yl)cyclobutane-1-carboxamide]",200 to 1000 nM
18,"CC(C)(O)CC(=O)Nc1c[nH]c2ccc(OCCC3CCN(CC(F)(F)F)CC3)cc12 [Compound 118, 3-hydroxy-3-methyl-N-(5-(2-(1-(2,2,2-trifluoroethyl)piperidin-4-yl)ethoxy)-1H-indol-3-yl)butanamide]",200 to 1000 nM
19,"CC1(F)CC(C(=O)Nc2c[nH]c3ccc(O[C@H]4C[C@H](c5ccc(C(F)(F)F)cc5)C4)cc23)C1 (stereo partly drawn) [Compound 469, 3-fluoro-3-methyl-N-{5-[(1R,3R)-3-[4-(trifluoromethyl)phenyl]cyclobutoxy]-1H-indol-3-yl}cyclobutane-1-carboxamide]",200 to 1000 nM
20,"CC1(C(=O)Nc2c[nH]c3ccc(CCOc4ccc(C(F)(F)F)cc4)cc23)CCC1 [Compound 309, 1-methyl-N-(5-(2-(4-(trifluoromethyl)phenoxy)ethyl)-1H-indol-3-yl)cyclobutane-1-carboxamide]",40 to 200 nM
21,"CC(=O)Nc1c[nH]c2ccc(OCCC34CC(c5ccccc5)(C3)C4)cc12 [Compound 262, N-(5-(2-(3-phenylbicyclo[1.1.1]pentan-1-yl)ethoxy)-1H-indol-3-yl)acetamide]",40 to 200 nM
22,"CC(=O)Nc1c[nH]c2ccc(COCC3CCN(CC(F)(F)F)CC3)cc12 [Compound 268, N-(5-(((1-(2,2,2-trifluoroethyl)piperidin-4-yl)methoxy)methyl)-1H-indol-3-yl)acetamide]",1000 to 5000 nM
23,"O=C(Nc1c[nH]c2ccc(CCCc3ccc(C(F)(F)F)cc3)cc12)C1CCC1 [Compound 139, N-(5-(3-(4-(trifluoromethyl)phenyl)propyl)-1H-indol-3-yl)cyclobutanecarboxamide]",40 to 200 nM
